Data: patent publication USRE36187E, “Acyclic pyrrolo [2,3-d]pyrimidine analogs as antiviral agents” (The Regents of the University of Michigan, priority 1994, dated 1999)

Key:
HCMV [1] = experiment: HCMV plaque (focus) reduction assay in HFF cells; format: cell-based, human cytomegalovirus (Towne strain); details: in words
Experimental: (§1) The 148 strain of HSV-1 was used in most experiments and was provided by Dr. T. W. Schafer of Schering Corporation. The HF strain of HSV-1 was used in selected experiments and was obtained from Dr. G. H. Cohen, University of Pennsylvania. The Towne strain, plaque-purified isolate Po, of HCMV was a gift of Dr. Mark Stinski, University of Iowa.
Stock HCMV was prepared by infecting HFF cells at a multiplicity of infection (m.o.i.) of less than 0.01 plaque-forming units (p.f.u.) per cell. Cell growth medium was changed every four days until cytopathology was evident in all cells (approximately 21 days). Supernatant fluids were retained as the virus stock. Four days later, the remaining cells were disrupted by three cycles of freeze-thawing and the cell plus medium held as an additional source of virus. Storage was in liquid nitrogen.
(§2) HCMV was titered in 24-well cluster dishes which were planted to contain 5×10^4 HFF cells/well, grown as described above. When the cells were 70 to 80% confluent, 0.2 ml of the virus suspension was added per wall and adsorbed as described above. At least three ten-fold dilutions of each preparation were used. Following virus adsorption, the cell sheets were overlayed with 0.5% methocel (4000 CPS) in maintenance medium [(MEM) with 1.1 gm/liter NaHCO3, 100 units/ml penicillin G, 100 μg/ml streptomycin, and 5% fetal bovine serum]. The cultures were incubated in a humidified atmosphere of 4% CO2 -96% air. Viral foci were visible 5 to 7 days after infection using at least 10-fold magnification. Cells were fixed and stained by a 10-minute exposure to a 0.1% solution of crystal violet in 20% methanol 7 to 12 days after infection. Microscopic foci were enumerated at 20-fold magnification using a Nikon Profile Projector.
The effect of compounds of the replication of HCMV has been measured using both a plaque (focus) reduction assay and a titer (yield) reduction assay. For the former, HFF cells in 24-well culture dishes were infected with approximately 50 p.f.u. of HCMV per well using the procedures detailed above. Compounds dissolved in growth medium were added in three to six selected concentrations to triplicate wells following virus adsorption. Following incubation at 37° C. for 7 to 10 days, cell sheets were fixed, stained and microscopic foci were enumerated as described above. Drug effects were calculated as a percentage of reduction in number of foci in the presence of each drug concentration compared to the number observed in the absence of drug. DHPG (ganciclovir) was used as a positive control in all experiments.
(§3) Dose-response relationships were used to compare drug effects. These were constructed by linearly regressing the percent inhibition of parameters derived in the preceding sections against log drug concentrations. The 50% inhibitory (I50) concentrations were calculated from the regression lines using the methods described by Goldstein. See Goldstein, A., Biostatistics: An Introductory Text, MacMillan, N.Y., 1964, pp. 156-161. Along with the I50 concentration for visual cytotoxicity, the averaged I50 concentrations are compared to I50 concentrations for inhibition for HCMV or HSV-1 replication. Compounds for which the ratio of cytotoxicity I50 concentrations to antiviral I50 concentrations (in vitro therapeutic index) were greater than 10, were considered for further study.

[2] = Visual cytotoxicity in BSC-1 cells; format: cell-based, African green monkey; details: monkey, visual cytotoxicity at time of HSV-1 plaque enumeration, read-out: 50% Inhibitory Concentration, Cytotoxicity BSC
Description: Cytotoxicity produced in HFF and BSC-1 cells was estimated by visual scoring of cells not affected by virus infection in the HCMV and HSV-1 plaque reduction assays. Cytopathology was estimated at 35- and 60-fold magnification and scored on a zero to four plus basis. Wells were scored on the day of staining.

KB cells = experiment: Growth of KB cells (population doubling); format: cell-based, human
Experimental: (§4) Population doubling times and cell viability were measured in uninfected HFF and/or KB cells. Cells were planted in replicate 6-well plastic tissue culture dishes or in 25 cm^2 flasks as described above in part 1. Following an incubation period during which cells attached to the substrate, medium was decanted, the cell sheet rinsed once with HBS, and fresh medium added. The medium consisted of MEM(E) with 1.1 gm NaHCO3 /liter and 10% fetal bovine or calf serum plus appropriate log or half-log concentrations of drug. After additional periods of incubation from 1 to 72 hours at 37° C., cells were harvested by means of 0.05% trypsin plus 0.02% EDTA in a HEPES-buffered salt solution. Cells were enumerated using either a Coulter counter or a hemocytometer and viability determining using […] dye exclusion.
In more extensive cytotoxicity testing, the halogenated compounds were tested for effects on the growth of KB cells. Populations doubling times were calculated from the logarithmic portions of growth curves and were as follows: […]

HFF cells = experiment: Growth of human diploid fibroblasts (HFF cells); format: cell-based; details: for population doubling of HFF cells: 100 μM, control cells underwent two doublings
Experimental: as §4
The effect of these compounds on the growth of human diploid fibroblasts (HFF cells) was less pronounced. During a 70-hour incubation, control cells underwent two doublings. […] A 100 μM concentration reduced the number of cells by less than 10%.

HCMV [3] = experiment: HCMV titer (yield) reduction assay in HFF cells; format: cell-based, human cytomegalovirus (Towne strain); details: for HCMV titer reduction, fold better than acyclovir: FIG. 1; for HCMV titer reduction activity: in words, FIG. 2 or FIG. 3
Description: as §1, §2
For titer reduction assays, HFF cells were planted as described above in 24-well cluster dishes or in 25 cm^2 flasks. When monolayers were approximately 70% confluent, HCMV was added at a m.o.i. of 0.5 p.f.u. per cell and adsorbed as detailed above. Compounds dissolved in growth medium were added in one or one-half logarithm 10 dilutions and incubation continued at 37° C. After 7 to 10 days of incubation, culture dishes or flasks were frozen at […] For titer determination, cells were thawed and then subjected to two more cycles of freezing and thawing at 37° C. Serial, one-logarithm10 dilutions of the final suspension were prepared and inoculated onto new cultures of HFF cells. Titer determination was as detailed above in part (1) (b).
as §3

MCMV = experiment: Mortality of mice infected with murine cytomegalovirus; format: in vivo
Experimental: Compound UMJD 183 was tested in mice infected with murine cytomegalovirus (MCMV). This animal model has been recognized as having capabilities predictive of efficacy in humans.
(§5) Compound UMJD 183 and the drug ganciclovir (DHPG) were administered to groups of 15 mice each at doses and times of administration shown in Table 3. Each compound at all doses was administered intraperitoneally twice daily for five days beginning at either 6, 24 or 48 hours after virus inoculation. Animals were observed daily and the number dying each day recorded.
^a Animlas were treated i.p. twice daily for 5 days with the doses
stated above. Treatment was initiated at the times indicated following

[4] = Drug toxicity control in uninfected mice; format: in vivo
Experimental: as §5
Even when the compound was administered 48 hours after virus infection, compound UMJD 183 reduced mortality from 80-93% in controls to 40% in the presence of 5.6 mg/kg of the drug. When UMJD 183 was administered sooner, 6 or 24 hours after virus infection, mortality was reduced further to 7 or 20%, respectively.
^d Drug toxicity control. No virus administered.

[5] = previously reported; cited from earlier work
[6] = 1.9 mg/kg i.p. twice daily, from 6 h
[7] = 1.9 mg/kg i.p. twice daily, from 24 h
[8] = 1.9 mg/kg i.p. twice daily, from 48 h
[9] = 5.6 mg/kg i.p. twice daily, from 6 h
[10] = 5.6 mg/kg i.p. twice daily, from 24 h
[11] = 5.6 mg/kg i.p. twice daily, from 48 h
[12] = 16.7 mg/kg i.p. twice daily, from 6 h
[13] = 16.7 mg/kg i.p. twice daily, from 24 h
[14] = 16.7 mg/kg i.p. twice daily, from 48 h
[15] = 50 mg/kg i.p. twice daily, from 6 h
[16] = 50 mg/kg i.p. twice daily, from 24 h
[17] = 50 mg/kg i.p. twice daily, from 48 h

In the case of `Nc1nc2c(ncn2COCCO)c(=O)[nH]1` [Acyclovir, reference compound], the “activity against HCMV” value (HCMV [1]) was “only modest activity against HCMV” and the CC50 [2] was over 100 µM.
With `Nc1ncnc2c1c(Cl)cn2COCCO` [UMJD 100, 4-Amino-5-chloro-7-(2-hydroxyethoxymethyl)pyrrolo[2,3-d]-pyrimidine] the “activity against HCMV” value (HCMV [1]) was “active against HCMV”, the “effect on KB cell growth” value (KB cells; 100 μM, in words) was “affected KB cell growth to only a minor extent” and the “decrease in number of HFF cells” value (HFF cells; 10 or 32 μM, 70 hours, in words) was “no decrease in the number of cells”.
In the case of `Nc1ncnc2c1c(Br)cn2COCCO` [UMJD 102, 4Amino-5-bromo-7-(2-hydroxyethoxymethyl)pyrrolo[2,3-d]-pyrimidine], the “activity against HCMV” value (HCMV [1]) was “active against HCMV”, the “HCMV titer reduction, fold better than acyclovir” value (HCMV [3]) was “approximately 10 fold” and the cytostatic effect (KB cells; in words) was “cytostatic”. The “population doubling of HFF cells” value (HFF cells; 70 hours) was “one population doubling” and the “effect on growth of HFF cells” value (HFF cells; in words) was “more pronounced”.
For `Nc1ncnc2c1c(I)cn2COCCO` [UMJD 104, 4-Amino-5-iodo-7-(2-hydroxyethoxymethyl)pyrrolo[2,3-d]-pyrimidine], the “activity against HCMV” value (HCMV [1]) was “active against HCMV”, the “HCMV titer reduction, fold better than acyclovir” value (HCMV [3]) was “approximately 10 fold” and the “population doubling of HFF cells” value (HFF cells; 70 hours) was “one population doubling”. For the same compound, the “effect on growth of HFF cells” value (HFF cells; in words) was “more pronounced”.
For `Nc1ncnc2c1c(Br)cn2COC(CO)CO` [UMJD 183, 4-amino-5-bromo-7-[(1,3-dihydroxy-2-propoxy)methyl]-pyrrolo[2,3-d]pyrimidine], the “HCMV titer reduction activity” value (HCMV [3]) was “most active”, the “time of KB cell growth in the presence of the drug before slowing or stopping” value (KB cells; KB cells) was “up to 20 hours” and the “effect on growth of KB cells” value (KB cells; in words) was “growth of KB cells also was inhibited, but to a lesser extent”. For the same compound, the “growth in the presence of up to 32 μM drug” value (KB cells; up to 32 μM, 50 hours) was “at a reduced rate”, the “MDD (Mean Day of Death)” value (MCMV; [6]) was 6.2 and the “Mortality Percent” value (MCMV; [6]) was 33%. The “MDD (Mean Day of Death)” value (MCMV; [7]) was 4.8, the “Mortality Percent” value (MCMV; [7]) was 60% and the “MDD (Mean Day of Death)” value (MCMV; [8]) was 4.8. The “Mortality Percent” value (MCMV; [8]) was 67%, the “MDD (Mean Day of Death)” value (MCMV; [9]) was 8.0 and the “Mortality Percent” value (MCMV; [9]) was 7%. For the same compound, the “MDD (Mean Day of Death)” value (MCMV; [10]) was 6.3, the “Mortality Percent” value (MCMV; [10]) was 20% and the “MDD (Mean Day of Death)” value (MCMV; [11]) was 5.5. For the same compound, the “Mortality Percent” value (MCMV; [11]) was 40%, the “increase in number of animals surviving” value (MCMV; 5.6 mg/kg i.p., in words) was “highly significant increases in the number of animals surviving the virus infection” and the “MDD (Mean Day of Death)” value (MCMV; [12]) was 8.7. For the same compound, the “Mortality Percent” value (MCMV; [12]) was 60%, the “MDD (Mean Day of Death)” value (MCMV; [13]) was 7.1 and the “Mortality Percent” value (MCMV; [13]) was 80%. For the same compound, the “MDD (Mean Day of Death)” value (MCMV; [14]) was 8.4, the “Mortality Percent” value (MCMV; [14]) was 87% and the “MDD (Mean Day of Death)” value (MCMV; [15]) was 10.8. The “Mortality Percent” value (MCMV; [15]) was 60%, the “MDD (Mean Day of Death)” value (MCMV; [16]) was 8.8 and the “Mortality Percent” value (MCMV; [16]) was 93%. The “MDD (Mean Day of Death)” value (MCMV; [17]) was 7.5, the “Mortality Percent” value (MCMV; [17]) was 97% and the “effect on life span (mean day of death)” value (MCMV; all doses, i.p.) was “prolonged life span (increased the mean day of death) at all doses”. For the same compound, the “MDD (Mean Day of Death), Toxicity” value ([4]; 16.7 mg/kg, no virus) was 5.0, the “deaths in uninfected animals” value ([4]; all doses together, i.p.) was 1 death in 60 animals and the “toxicity in uninfected animals” value ([4]; in words, i.p.) was “virtually no toxicity”.
For `NC(=S)c1cn(COCCO)c2ncnc(N)c12` [UMJD 229, 4-Amino-7-(2-hydroxyethoxymethyl)pyrrolo[2,3-d]pyrimidine-5-thiocarboxamide], the “activity against HCMV” value (HCMV [1]) was “active against HCMV”.
In the case of `OCC(CO)OCn1cc(Br)c2c(NO)ncnc21` [UMJD 299, 4-hydroxylamino-5-bromo-7-[(1,3-dihydroxy-2-propoxy)methyl]pyrrolo[2,3-d]pyrimidine], the “HCMV titer reduction activity” value (HCMV [3]) was “active and nearly as potent as the 4-amino analogs”.
With `OCC(CO)OCn1cc(Cl)c2c(NO)ncnc21` [UMJD 328, 4-hydroxylamino-5-chloro-7-[(1,3-dihydroxy-2-propoxy)methyl]pyrrolo[2,3-d]pyrimidine] the “HCMV titer reduction activity” value (HCMV [3]) was “active and nearly as potent as the 4-amino analogs”.
In the case of `OCC(CO)OCn1cc(I)c2c(NO)ncnc21` [UMJD 329, 4-hydroxylamino-5-iodo-7-[(1,3-dihydroxy-2-propoxy)methyl]pyrrolo[2,3-d]pyrimidine], the “HCMV titer reduction activity” value (HCMV [3]) was “active and nearly as potent as the 4-amino analogs”.
In the case of `NC(=O)c1cn([C@@H]2O[C@H](CO)[C@@H](O)[C@H]2O)c2ncnc(N)c12` [sangivamycin], the “broad spectrum antiviral activity” value [5] is listed as “Broad spectrum antiviral activity”.
In the case of `N#Cc1cn([C@@H]2O[C@H](CO)[C@@H](O)[C@H]2O)c2ncnc(N)c12` [toyocamycin], the “broad spectrum antiviral activity” value [5] is given as “Broad spectrum antiviral activity”.
For `Nc1ncnc2c1ccn2[C@@H]1O[C@H](CO)[C@@H](O)[C@H]1O` [tubercidin], the “broad spectrum antiviral activity” value [5] is listed as “Broad spectrum antiviral activity”.
